Test results as given in patent US20250312468A1, “ANTI-PROTAC ANTIBODIES AND COMPLEXES” (Merck Patent GmbH, priority 2021, published 2025).

Tests used:
CD33xMIC9 = assay: SPR affinity of VHH clone (antibody fusion) to PROTACs; conditions: CD33xMIC9 immobilized, 25° C., read-out: KD [M] for antibody binding to PROTAC
In short: (§1)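 SPR, 25° C: CD33–VHH fusion amine-coupled to CM5 (3,000–6,000 RU), PROTAC analyte 1 μM→0.002 μM (10 conc., 2-fold), running buffer phosphate pH 7.4/137 mM NaCl/0.05% Tween20/2% DMSO. 300 s association, 900 s dissociation; double-referenced, 1:1 Langmuir fit for kinetics.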

CD33xMIC14 = assay: as above; conditions: CD33xMIC14 immobilized, 25° C., read-out: KD [M] for antibody binding to PROTAC
In short: as §1

CD33xMIC11 = assay: as above; conditions: CD33xMIC11 immobilized, 25° C., read-out: KD [M] for antibody binding to PROTAC
In short: as §1

CD33xMIC6 = assay: as above; conditions: CD33xMIC6 immobilized, 25° C., read-out: KD [M] for antibody binding to PROTAC
In short: as §1

CD33xMIC7 = assay: as above; conditions: CD33xMIC7 immobilized, 25° C., read-out: KD [M] for antibody binding to PROTAC
In short: as §1

CD33xMIC8 = assay: as above; conditions: CD33xMIC8 immobilized, 25° C., read-out: KD [M] for antibody binding to PROTAC
In short: as §1

SKBR3 = assay: CellTiter-Glo cell viability assay (VHH-based PAX); conditions: SKBR3, PROTAC alone
Description: (§2) Several cell viability experiments were performed following the procedure described below: Cells were seeded in different media into white cell culture-treated flat and clear bottom multiwell plates followed by overnight incubation in a humid chamber at 37° C. and 5% CO2. Complexation was performed as described in chapter 7.4.
(§3) The solutions were added to the cells based on the antibody concentration using nanodrop dispension using a Tecan D300e Digital Dispenser and all wells were normalized to the same volume using 0.3% TW20 in PBS pH 7.4 and DMSO to a final solvent concentration of 0.05% DMSO and 0.003% TW20. Incubation was performed at 37° C. at 5% or 10% CO2 dependent on the medium. The assay was developed after 3 days if not otherwise stated using CellTiter-Glo Luminescent Cell Viability Assay as described in the manufacturer's protocol. In brief, the plates were equilibrated to room temperature for 30 minutes. 100 mL CellTiter-Glo Buffer were added to the CellTiter-Glo Substrate Flask and mixed well. 30 μL of the reagent was transferred to each well. After incubation for 3 minutes at room temperature while shaking at 550 rpm, the plate was incubated for another 10 minutes at room temperature. The luminescence was read on an Envision reader from Perkin Elmer. Solvent alone and Bortezomib (1.0E-05 M) served as high control (100% viability) and low control (0% viability), respectively. Raw data were converted into percent cell viability relative to the high and low control, which were set to 100% and 0%, respectively. […] The concentration corresponds to the concentration of PROTACs in the PAX.

OVCAR3 = assay: CellTiter-Glo cell viability assay (VHH-based PAX); conditions: OVCAR3, PROTAC alone
Description: as §2, §3

RAMOS cells = assay: CellTiter-Glo cell viability assay (VHH-based PAX); conditions: PROTAC alone
Description: as §2, §3

A549 = assay: CellTiter-Glo cell viability assay (VHH-based PAX); conditions: A549, PROTAC alone
Description: as §2, §3

SW620 = assay: CellTiter-Glo cell viability assay (VHH-based PAX); conditions: SW620, PROTAC alone
Description: as §2, §3

NCIN87 = assay: CellTiter-Glo cell viability assay (VHH-based PAX); conditions: NCIN87, PROTAC alone
Description: as §2, §3

Mouse serum stability = format: in vitro ADME; conditions: 5 μM, 37° C.
Description: The mixture was incubated 2 hours at room temperature while shaking at 650 rpm. 15% (vol/vol) 2 M HEPES buffer pH 7.55 were added to mouse serum from Biowest (Lot.no. S18169S2160) followed by sterile filtration.
The incubation was stopped by freezing at −20° C.
The concentration of PROTAC GNE987 was quantified using LC-MS.
Quantification was performed using a total antibody ELISA (FIG. 24).

[1] = Storage stability of antibody-PROTAC complexes (DLS, SE-HPLC, visible changes); format: physicochemical; conditions: no storage time/temperature printed
Description: Storage stability of antibody-PROTAC complexes was assessed after complexation (6 mg/ml, 650 rpm, 3 h, rt) by incubation in the fridge at 4° C. over 96 h as well as snap-freezing the complexes and storage at −80° C. for 24 h or at −20° C. at 96 h. Subsequently the samples were checked for visible changes, the polydispersity was assessed using DLS measurements and the loading was measured via SE-HPLC (Table 6). Samples with polydispersity up to 15% are considered monodisperse.

## Cc1ncsc1-c1ccc([C@H](C)NC(=O)[C@@H]2C[C@@H](O)CN2C(=O)[C@@H](NC(=O)COCCCOCCNC(=O)C[C@@H]2N=C(c3ccc(Cl)cc3)c3c(sc(C)c3C)-n3c(C)nnc32)C(C)(C)C)cc1 [ARV771]
CD33xMIC9
  Kd: 4e-09 M
CD33xMIC14
  Kd: 1.4e-07 M
CD33xMIC11
  Kd: 3.7e-09 M
CD33xMIC6
  Kd: 5.3e-08 M
CD33xMIC7
  Kd: 4.2e-09 M
CD33xMIC8
  Kd: 3.1e-08 M

## Cc1ncsc1-c1ccc(CNC(=O)[C@@H]2C[C@@H](O)CN2C(=O)[C@@H](NC(=O)CCCCCCCCCCNC(=O)c2cc3c(cc2CS(C)(=O)=O)-c2cn(C)c(=O)c4[nH]cc(c24)CN3c2ncc(F)cc2F)C(C)(C)C)cc1 [GNE987]
SKBR3
  IC50: 0.39 nM
OVCAR3
  IC50: 0.4 nM
RAMOS cells
  IC50: 0.058 nM
A549
  IC50: 1.4 nM
SW620
  IC50: 0.84 nM
NCIN87
  IC50: 0.53 nM
Mouse serum stability
  stability of GNE987 in mouse serum (LC-MS): stable over 72 hours
CD33xMIC9
  Kd: 4.3e-08 M
CD33xMIC14
  Kd: 1e-08 M
CD33xMIC11
  Kd: 2e-08 M
CD33xMIC6
  Kd: 4.1e-08 M
CD33xMIC7
  Kd: < 1e-10 M
CD33xMIC8
  Kd: 6.5e-09 M
[1]
  Visible evaluation: precipitation
